From paper PMC12758957 (Thrombosis and Haemostasis, 2025)

Legend:
[1] = biological target: T1, prothrombinase-activated wild-type prothrombin (Homo sapiens, UniProt P00734); experiment: Inhibition of pNAPEP-0238 peptidyl substrate conversion in a purified system; type: biochemical; details: wild-type thrombin, observed vs reported (ref 41)
Procedure: (§1) Prothrombin variants were activated to thrombin by prothrombinase immediately prior to analyses. Reaction mixtures of prothrombin variant (1 μM) and preassembled prothrombinase (2 nM FXa, 2 nM FV-810, and 50 μM phospholipid TGT, final concentrations) were incubated for 30 minutes at 25°C in assay buffer, upon which the reaction was quenched in dilution buffer supplemented with 50 mM EDTA.

[2] = biological target: prothrombinase-activated prothrombin-KL3; type: biochemical, human
Procedure: as §1

[3] = biological target: T1, prothrombinase-activated wild-type prothrombin; details: 1 μM dabigatran
Procedure: Fibrinogen conversion was determined employing a turbidity assay. […] Turbidity was measured for 1 hour at 25°C and 350 nm.

wild-type thrombin = details: read-out: reported K i, substrate conversion; cited from earlier work
thrombin = details: read-out: reported IC50, peak thrombin formation; cited from earlier work
FXa = tested on: FXa; set-up: method as in PMID 28904343, PMID 38729577; details: S4 subsite modified FXa variants; cited from earlier work

With `CC1CNc2c(cccc2S(=O)(=O)N[C@@H](CCCNC(=N)N)C(=O)N2CC[C@@H](C)C[C@@H]2C(=O)O)C1` (some centres unmarked) [Argatroban] the “lower K i value observed versus reported” value [1] was 13 fold.
In the case of `[H]/N=C(/N)c1ccc(NCc2nc3cc(C(=O)N(CCC(=O)O)c4ccccn4)ccc3n2C)cc1` [Dabigatran], the IC50 ([2]; 5 nM prothrombinase-activated KL3, 50 μM pNAPEP-0238, read-out: IC50, pNAPEP-0238 conversion) is reported as 237 ± 33 nM, the Ki ([2]; KL3, Cheng-Prusoff equation) is reported as 150 nM and the “fibrinogen conversion by activated wild-type prothrombin (in words)” value [3] is reported as “no detectable fibrinogen conversion”. The Ki (wild-type thrombin) was 5 nM and the IC50 (thrombin) was […].
In the case of `COc1ccc(-n2nc(C(N)=O)c3c2C(=O)N(c2ccc(N4CCCCC4=O)cc2)CC3)cc1` [apixaban], the “hindered FXa active site engagement by inhibitor” value (FXa) is listed as ≤ 800 fold.
For `O=C(NC[C@H]1CN(c2ccc(N3CCOCC3=O)cc2)C(=O)O1)c1ccc(Cl)s1` [rivaroxaban], the “hindered FXa active site engagement by inhibitor” value (FXa) is given as ≤ 800 fold.
